The test has as its target Dual specificity protein phosphatase 3 (Homo sapiens, UniProt P51452). The test is described as follows: VHR phosphatase inhibition, dose response, selectivity assay for STEP inhibitor project, biochemical (AID 602374).

Sequence of Dual specificity protein phosphatase 3 (P51452 whole entry): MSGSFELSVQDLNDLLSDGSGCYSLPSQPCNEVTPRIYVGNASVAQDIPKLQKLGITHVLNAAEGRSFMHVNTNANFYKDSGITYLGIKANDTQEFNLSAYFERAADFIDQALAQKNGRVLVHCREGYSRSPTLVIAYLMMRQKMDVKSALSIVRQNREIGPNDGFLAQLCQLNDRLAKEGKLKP

What is called IC50 is the point on the concentration scale where inhibition reaches its midpoint. As for `S=C1N=C(C23CC4CC(CC(C4)C2)C3)CC(c2ccc3c(c2)OCO3)N1` (stereo not given), the IC50 was 3520 nM. `CCOc1cc(CN=Nc2nc(O)c(CC(=O)O)s2)ccc1OCc1ccc(Cl)cc1Cl` [2-[2-[(N''E)-N''-[4-(2,4-dichlorobenzyl)oxy-3-ethoxy-benzylidene]hydrazino]-4-keto-2-thiazolin-5-yl]acetic acid] came in with an IC50 of 2420 nM.

Regarding `C=c1c(O)c(O)c(=C2C(=O)C(=O)C(C)C(=O)C2=O)c(O)c1O` (stereo not given) [(3E)-5-hydroxy-6-methyl-3-(2,3,5-trihydroxy-4-methyl-6-oxo-1-cyclohexa-2,4-dienylidene)cyclohex-5-ene-1,2,4-trione], the midpoint of inhibition, the IC50, lay at 1270 nM. This IC50 is about 1.9-fold lower than that of the compound before. For `O=C1C(=O)N(CCCO)C(c2ccc(Br)cc2)C1C(=O)c1ccc(Br)cc1` (stereo not given) [(4E)-5-(4-bromophenyl)-4-[(4-bromophenyl)-oxidanyl-methylidene]-1-(3-oxidanylpropyl)pyrrolidine-2,3-dione] the value was 73400 nM; for `S=C1N=C2C(=C3SCCS3)CCCC2C(c2ccccc2)N1` (stereo not given) [MLS000516376], 1230 nM. With `CCN(CC)P(=O)(NC(=O)C(Cl)(Cl)Cl)N(CC)CC` [MLS000564159] the figure was 3250 nM; with `CSc1ccc(CN=Nc2ccc(S(=O)(=O)Nc3ccccc3C(=O)O)cc2[N+](=O)[O-])cc1` [MLS002245633], 1270 nM. For the compound `O=C(N/N=C/C1C=CC=CC1=O)c1cccc([N+](=O)[O-])c1` (stereo not given) [MLS002667988], the IC50 stood at 3130 nM. For `COc1ccc(OC)c(-n2c(O)c3o[nH]c(-c4ccccc4Cl)c-3c2=O)c1` [SMR000046218] the value was 833 nM; for `COc1ccc(CN=Nc2nc(O)c(CC(=O)O)s2)cc1OCc1ccc(Cl)cc1Cl` [[2-({3-[(2,4-dichlorobenzyl)oxy]-4-methoxybenzylidene}hydrazono)-4-oxo-1,3-thiazolidin-5-yl]acetic acid], 4790 nM.
